Laboratory results: patent publication US20250108038A1 (priority 2023, published 2025)
Values joined by “and” are separate entries in the source; they are usually repeats but may differ in a detail not shown here. Equal entries are not always repeated.

Tested on: Long Evans rats
Test: Behavioral satiety sequence (BSS)
Format: in vivo, Long Evans rat
Text: The Behavioural Satiety Sequence (BSS) is a technique used to evaluate physiological satiety. It is based on the expression of a sequence of behaviors including eating, grooming, locomotor activity, followed by resting, which are typically observed in rodents post-ingestion (Halford et al, 1998, Pharmacology Biochemistry and Behaviour. 61(2): 159-168). The BSS is a widely used model for determining the effects of novel pharmaceuticals on food intake and measures of satiety in rodents (Oliveira et al, 2011, Revista de Nutrição. 24(4) 619-628), and to discriminate the cause of reduced food intake following pharmacological manipulation. For example, treatments that may reduce food intake by non-specific mechanisms, such as immobility, malaise, and taste adulteration, will disrupt this sequence (Halford et al, 1998, Pharmacology Biochemistry and Behaviour. 61(2): 159-168).
Specifically, 12 male Long-Evans rats were food-deprived for 22 h with a 2 h feeding period each day. Rats were trained to consume daily food during the 2 h period over 25 days. The testing phase was initiated once the rats consistently consumed 16-18 g of food per day with ≤10% variance in amount of feed consumed. Feeding took place in designated individual boxes in a quiet room separate from the housing room. Continuous remote monitoring via video camera during feeding was used to assess the BSS. Food consumption was measured by weighing the total available food before and after the 2 h feeding window, correcting for spillage. Lorcaserin (1 mg/kg) was included as a reference control (Higgins et al, 2011, Neuropsychopharmacology. 37(5): 1177-1191). Subjects were tested using a repeated-measures, Latin square design with 2-3 days wash-out between treatment cycles.
On scheduled test days, animals were monitored remotely via video camera during the feeding access period. The occurrence of four mutually exclusive behaviors (eating/drinking, grooming, active, rest) were individually scored. Over the 2 h feeding period, behaviors were assessed every 30 seconds. Scores were compiled into 23 5 min timebins (timebin 24 was removed due to early removal of animals) and the frequency of each behavior within each timebin was calculated to determine a temporal frequency of each measure (Rodgers et al, 2010, Pharmacology Biochemistry and Behaviour. 97: 3-14). Percentage time was plotted for each behavioral sequence in each timebin to compare between treatment groups (Higgins et al, 2011, Neuropsychopharmacology. 37(5): 1177-1191).

[1] = Compound I-19 0.3 mg/kg, raw score per animal (LT-1 to LT-12)
[2] = Compound I-19 1 mg/kg i.p., AVG of the group
[3] = Compound I-19 1 mg/kg i.p., raw score per animal
[4] = Compound I-19 1 mg/kg, AVG of 12 animals

Clc1ccc(C2(OCC3OCCO3)c3ccccc3C3=NCCN32)cc1 (stereo not drawn) [Compound I-19]
BSS scoring G (grooming), Time Bin 22 (105-110 TOTAL) [1]: 0 (11×) and 1 | BSS scoring G (grooming), Time Bin 23 (110-115 TOTAL) [1]: 1 (4×) and 0 (7×) and 2 | BSS scoring G (grooming), Time Bin 24 (115-120 TOTAL) [1]: 0 (7×) and 1 (5×) | BSS scoring R (resting), Time Bin 19 (90-95 TOTAL) [1]: 1 (5×) and 0 (5×) and 2 and 6 | BSS scoring R (resting), Time Bin 20 (95-100 TOTAL) [1]: 0 (6×) and 1 (3×) and 4 and 2 (2×) | BSS scoring R (resting), Time Bin 21 (100-105 TOTAL) [1]: 0 (5×) and 1 (2×) and 3 (3×) and 2 and 10 | BSS scoring R (resting), Time Bin 22 (105-110 TOTAL) [1]: 0 (6×) and 4 and 10 and 6 and 1 and 2 (2×) | BSS scoring R (resting), Time Bin 23 (110-115 TOTAL) [1]: 0 (7×) and 3 and 6 (2×) and 2 (2×) | BSS scoring R (resting), Time Bin 24 (115-120 TOTAL) [1]: 0 (7×) and 10 and 6 and 7 and 1 (2×) | BSS scoring A (active), Time Bin 1 (0-5 TOTAL), AVG [2]: 0.11 | BSS scoring A (active), Time Bin 2 (5-10 TOTAL), AVG [2]: 0.04 | BSS scoring A (active), Time Bin 3 (10-15 TOTAL), AVG [2]: 0.07 | BSS scoring A (active), Time Bin 4 (15-20 TOTAL), AVG [2]: 0.02 | BSS scoring A (active), Time Bin 5 (20-25 TOTAL), AVG [2]: 0.10 | BSS scoring A (active), Time Bin 6 (25-30 TOTAL), AVG [2]: 0.17 | BSS scoring E (eating/drinking), Time Bin 1 (0-5 TOTAL), AVG [2]: 0.88 | BSS scoring E (eating/drinking), Time Bin 2 (5-10 TOTAL), AVG [2]: 0.88 | BSS scoring E (eating/drinking), Time Bin 3 (10-15 TOTAL), AVG [2]: 0.88 | BSS scoring E (eating/drinking), Time Bin 4 (15-20 TOTAL), AVG [2]: 0.93 | BSS scoring E (eating/drinking), Time Bin 5 (20-25 TOTAL), AVG [2]: 0.83 | BSS scoring E (eating/drinking), Time Bin 6 (25-30 TOTAL), AVG [2]: 0.80 | BSS scoring G (grooming), Time Bin 1 (0-5 TOTAL), AVG [2]: 0.02 | BSS scoring G (grooming), Time Bin 2 (5-10 TOTAL), AVG [2]: 0.07 | BSS scoring G (grooming), Time Bin 3 (10-15 TOTAL), AVG [2]: 0.03 | BSS scoring G (grooming), Time Bin 4 (15-20 TOTAL), AVG [2]: 0.03 | BSS scoring G (grooming), Time Bin 5 (20-25 TOTAL), AVG [2]: 0.03 | BSS scoring G (grooming), Time Bin 6 (25-30 TOTAL), AVG [2]: 0.01 | BSS scoring R (resting), Time Bin 1 (0-5 TOTAL), AVG [2]: 0.00 | BSS scoring R (resting), Time Bin 2 (5-10 TOTAL), AVG [2]: 0.01 | BSS scoring R (resting), Time Bin 3 (10-15 TOTAL), AVG [2]: 0.02 | BSS scoring R (resting), Time Bin 4 (15-20 TOTAL), AVG [2]: 0.03 | BSS scoring R (resting), Time Bin 5 (20-25 TOTAL), AVG [2]: 0.03 | BSS scoring R (resting), Time Bin 6 (25-30 TOTAL), AVG [2]: 0.03 | BSS scoring A (active), Time Bin 1 (0-5 TOTAL) [3]: 0 (3×) and 1 (5×) and 2 (4×) | BSS scoring A (active), Time Bin 2 (5-10 TOTAL) [3]: 0 (8×) and 2 and 1 (3×) | BSS scoring A (active), Time Bin 3 (10-15 TOTAL) [3]: 0 (4×) and 1 (8×) | BSS scoring A (active), Time Bin 4 (15-20 TOTAL) [3]: 0 (10×) and 1 (2×) | BSS scoring A (active), Time Bin 5 (20-25 TOTAL) [3]: 2 (2×) and 0 (5×) and 1 (4×) and 4 | BSS scoring A (active), Time Bin 6 (25-30 TOTAL) [3]: 2 (3×) and 0 (5×) and 7 and 3 (2×) and 1 | BSS scoring E (eating/drinking), Time Bin 1 (0-5 TOTAL) [3]: 10 (3×) and 9 (4×) and 7 and 8 (4×) | BSS scoring E (eating/drinking), Time Bin 2 (5-10 TOTAL) [3]: 10 (4×) and 8 (4×) and 9 (3×) and 7 | BSS scoring E (eating/drinking), Time Bin 3 (10-15 TOTAL) [3]: 10 (3×) and 9 (5×) and 8 (3×) and 7 | BSS scoring E (eating/drinking), Time Bin 4 (15-20 TOTAL) [3]: 10 (5×) and 9 (6×) and 8 | BSS scoring E (eating/drinking), Time Bin 5 (20-25 TOTAL) [3]: 7 (2×) and 10 (3×) and 9 (4×) and 8 (2×) and 4 | BSS scoring E (eating/drinking), Time Bin 6 (25-30 TOTAL) [3]: 6 and 10 (5×) and 1 and 7 (2×) and 9 and 8 (2×) | BSS scoring G (grooming), Time Bin 1 (0-5 TOTAL) [3]: 0 (10×) and 1 (2×) | BSS scoring G (grooming), Time Bin 2 (5-10 TOTAL) [3]: 0 (6×) and 2 (2×) and 1 (4×) | BSS scoring G (grooming), Time Bin 3 (10-15 TOTAL) [3]: 0 (9×) and 1 (2×) and 2 | BSS scoring G (grooming), Time Bin 4 (15-20 TOTAL) [3]: 0 (9×) and 1 (3×) | BSS scoring G (grooming), Time Bin 5 (20-25 TOTAL) [3]: 1 (4×) and 0 (8×) | BSS scoring G (grooming), Time Bin 6 (25-30 TOTAL) [3]: 0 (11×) and 1 | BSS scoring R (resting), Time Bin 1 (0-5 TOTAL) [3]: 0 | BSS scoring R (resting), Time Bin 2 (5-10 TOTAL) [3]: 0 (11×) and 1 | BSS scoring R (resting), Time Bin 3 (10-15 TOTAL) [3]: 0 (10×) and 1 (2×) | BSS scoring R (resting), Time Bin 4 (15-20 TOTAL) [3]: 0 (9×) and 1 (3×) | BSS scoring R (resting), Time Bin 5 (20-25 TOTAL) [3]: 0 (9×) and 1 (2×) and 2 | BSS scoring R (resting), Time Bin 6 (25-30 TOTAL) [3]: 2 and 0 (10×) and 1 | BSS scoring A (active), Time Bin 13 (60-65 TOTAL), AVG [4]: 0.09 | BSS scoring A (active), Time Bin 14 (65-70 TOTAL), AVG [4]: 0.13 | BSS scoring A (active), Time Bin 15 (70-75 TOTAL), AVG [4]: 0.17 | BSS scoring A (active), Time Bin 16 (75-80 TOTAL), AVG [4]: 0.16 | BSS scoring A (active), Time Bin 17 (80-85 TOTAL), AVG [4]: 0.18 | BSS scoring A (active), Time Bin 18 (85-90 TOTAL), AVG [4]: 0.12 | BSS scoring E (eating/drinking), Time Bin 13 (60-65 TOTAL), AVG [4]: 0.73 | BSS scoring E (eating/drinking), Time Bin 14 (65-70 TOTAL), AVG [4]: 0.73 | BSS scoring E (eating/drinking), Time Bin 15 (70-75 TOTAL), AVG [4]: 0.65 | BSS scoring E (eating/drinking), Time Bin 16 (75-80 TOTAL), AVG [4]: 0.64 | BSS scoring E (eating/drinking), Time Bin 17 (80-85 TOTAL), AVG [4]: 0.68 | BSS scoring E (eating/drinking), Time Bin 18 (85-90 TOTAL), AVG [4]: 0.54 | BSS scoring G (grooming), Time Bin 13 (60-65 TOTAL), AVG [4]: 0.06 | BSS scoring G (grooming), Time Bin 14 (65-70 TOTAL), AVG [4]: 0.03 | BSS scoring G (grooming), Time Bin 15 (70-75 TOTAL), AVG [4]: 0.05 | BSS scoring G (grooming), Time Bin 16 (75-80 TOTAL), AVG [4]: 0.03 | BSS scoring G (grooming), Time Bin 17 (80-85 TOTAL), AVG [4]: 0.01 | BSS scoring G (grooming), Time Bin 18 (85-90 TOTAL), AVG [4]: 0.03
